Patent publication US8455534B2, “Estrogen receptor modulators and uses thereof” (Aragon Pharmaceuticals, Inc., priority 2010, dated 2013)

Legend:
[1] = molecular target: T1, ER-α (Homo sapiens, UniProt P03372); assay: Breast Cancer Cell ER-α In Cell Western Assay (SP1); format: cell-based; settings: MCF-7 cells, SP1 antibody, 4 or 24 hr post compound addition; for Emax: MCF7, read-out: ER-α In Cell Western Assay (SP1) Max Response; for DC50: read-out: ER-α In Cell Western Assay (SP1) IC50
T1 sequence (P03372 1-595): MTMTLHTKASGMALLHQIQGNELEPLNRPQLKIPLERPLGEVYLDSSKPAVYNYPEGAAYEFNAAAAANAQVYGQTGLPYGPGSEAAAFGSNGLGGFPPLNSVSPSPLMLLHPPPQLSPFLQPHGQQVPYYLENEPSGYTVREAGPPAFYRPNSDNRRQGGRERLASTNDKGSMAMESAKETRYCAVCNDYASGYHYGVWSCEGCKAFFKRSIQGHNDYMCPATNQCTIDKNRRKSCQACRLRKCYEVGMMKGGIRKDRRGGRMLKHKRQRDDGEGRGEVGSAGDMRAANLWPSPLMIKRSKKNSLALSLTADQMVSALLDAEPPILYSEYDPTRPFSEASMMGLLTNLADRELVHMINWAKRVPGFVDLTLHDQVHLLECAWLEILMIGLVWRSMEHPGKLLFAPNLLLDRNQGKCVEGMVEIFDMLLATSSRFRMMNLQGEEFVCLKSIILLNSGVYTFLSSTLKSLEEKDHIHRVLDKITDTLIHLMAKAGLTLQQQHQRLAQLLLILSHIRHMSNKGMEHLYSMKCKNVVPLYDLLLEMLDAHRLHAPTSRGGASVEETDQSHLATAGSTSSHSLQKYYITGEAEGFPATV
Procedure: MCF-7 cells were adjusted to a concentration of 200,000 cells per mL in RPMI containing 10% charcoal-stripped FBS and 20 mM HEPES. 16 microliters of the cell suspension (3200 cells) was added to each well of a poly-D-lysine 384 well plate, and the cells were incubated overnight to allow the cells to adhere. The following day an eleven point, serial semilog dilution of each compound was added to the cells in 16 μL at a final concentration ranging from 0.3-0.000003 μM. At 4 or 24 hr post compound addition, the cells were fixed (10% formalin in PBS) for 20 minutes. Cells were permeablized in PBS 0.1% Triton and blocked with LICOR blocking buffer (50 μL1/well, 90′). The wells were then incubated overnight at 4° C. with SP1 rabbit monoclonal Ab (Thermo Scientific) diluted 1:1000 in LICOR blocking buffer/0.1% Tween-20. Wells which were treated with blocking buffer with Tween but no antibody were used as a background control. Wells were washed with 0.1% Tween-20/PBS and then incubated in goat anti-rabbit IRDye™ 800CW (LICOR Inc.; 1:1000) and DRAQ5 DNA dye (1:2000 for 2 mM stock) diluted in LICOR blocking buffer containing 0.1% Tween-20 and 0.01% SDS for 60 minutes. Cells were washed (50 μl/well, 5′ each) in 0.1% Tween-20/PBS. Plates were scanned on a LICOR Odyssey infrared imaging system. Integrated intensities in the 800 nm channel and 700 nm channel were measured to determine levels of ER and DNA respectively. Percent ER levels were determined as follows: (Integrated intensity 800 nm sample/integrated intensity 700 nm sample)/(Integrated intensity 800 nm untreated cells/integrated intensity 700 nm untreated cells)×100=% ER levels.

[2] = system: MCF-7 cells; assay: Breast Cancer Cell Viability Assay (MCF-7, CellTiter-Glo); format: cell-based; settings: 5 days' compound exposure; for IC50: Homo sapiens, MCF7, 120 h
Procedure: MCF-7 cells were adjusted to a concentration of 20,000 cells per mL in RPMI containing 10% FBS and 20 mM HEPES. 16 microliters of the cell suspension (320 cells) was added to each well of a 384 well plate, and the cells were incubated overnight to allow the cells to adhere. The following day an eleven point, serial semilog dilution of each compound was added to the cells in 16 μL at a final concentration ranging from 0.3-0.000003 μM. After 5 days' compound exposure, 16 μL of CellTiter-GLo (Promega, Madison Wis.) was added to the cells the relative luminescence units (RLUs) of each well was determined CellTiter-Glo added to 32 μL of medium without cells was used to obtain a background value. The Percent viability of each sample was determined as follows: (RLU sample-RLU background/RLU untreated cells-RLU background)×100=% viability.

Structure (SMILES)	Emax [1]	DC50 [1]	MCF7 Viability Assay Max Response [2]	IC50 [2]
CC/C(=C(/c1ccc(/C=C/C(=O)O)cc1)c1ccc2c(cnn2C)c1)c1ccccc1Cl [Compound 145, (E)-3-(4-((E)-2-(2-Chlorophenyl)-1-(1-methyl-1H-indazol-5-yl)but-1-en-1-yl)phenyl)acrylic acid]	≥ 40%	≤ 100 nM	++ (++ = a single % value ≧ 40%)	≤ 100 nM
CC/C(=C(/c1ccc(/C=C/C(=O)O)cc1)c1ccc2[nH]ncc2c1)c1ccccc1F [Compound 16, (E)-3-(4-((E)-2-(2-Fluorophenyl)-1-(1H-indazol-5-yl)but-1-en-1-yl)phenyl)acrylic acid]	≥ 40%	≤ 100 nM	++ (++ = a single % value ≧ 40%)	≤ 100 nM
[2H]C([2H])([2H])C([2H])([2H])/C(=C(/c1ccc(/C=C/C(=O)O)cc1)c1ccc2[nH]ncc2c1)c1ccc(Cl)cc1Cl [Compound 132, (E)-3-(4-((E)-2-(2,4-Dichlorophenyl)-3,3,4,4,4-pentadeutero-1-(1H-indazol-5-yl)but-1-en-1-yl)phenyl)acrylic acid]	≥ 40%	≤ 100 nM	++ (++ = a single % value ≧ 40%)	≤ 100 nM
CC/C(=C(/c1ccc(/C=C/C(=O)O)cc1)c1cc(F)c2[nH]ncc2c1)c1ccccc1 [Compound 62, (E)-3-(4-((E)-1-(7-Fluoro-1H-indazol-5-yl)-2-phenylbut-1-en-1-yl)phenyl)acrylic acid]	≥ 40%	≤ 100 nM	++ (++ = a single % value ≧ 40%)	≤ 100 nM
CC/C(=C(/c1ccc(/C=C/C(=O)O)cc1)c1ccc2[nH]nc(Cl)c2c1)c1ccccc1 [Compound 40, (E)-3-(4-((E)-1-(3-Chloro-1H-indazol-5-yl)-2-phenylbut-1-en-1-yl)phenyl)acrylic acid]	≥ 40%	> 100 nM	++ (++ = a single % value ≧ 40%)	> 100 nM
CC/C(=C(/c1ccc(/C=C/C(=O)O)cc1)c1cc(F)c2[nH]ncc2c1)c1ccc(F)cc1Cl [Compound 65, (E)-3-(4-((E)-2-(2-Chloro-4-fluorophenyl)-1-(7-fluoro-1H-indazol-5-yl)but-1-en-1-yl)phenyl)acrylic acid]	≥ 40%	≤ 100 nM	++ (++ = a single % value ≧ 40%)	≤ 100 nM
CCCCOc1cccc(/C(CC)=C(\c2ccc(/C=C/C(=O)O)cc2)c2ccc3[nH]ncc3c2)c1 [Compound 96, (E)-3-(4-((E)-2-(3-Butoxyphenyl)-1-(1H-indazol-5-yl)but-1-en-1-yl)phenyl)acrylic acid]	≥ 40%	≤ 100 nM	++ (++ = a single % value ≧ 40%)	≤ 100 nM
Cn1ncc2cc(/C(=C(/c3ccccc3)C3CCC3)c3ccc(/C=C/C(=O)O)cc3)ccc21 [Compound 146, (E)-3-(4-((E)-2-Cyclobutyl-1-(1-methyl-1H-indazol-5-yl)-2-phenylvinyl)phenyl)acrylic acid]	≥ 40%	≤ 100 nM	++ (++ = a single % value ≧ 40%)	≤ 100 nM
CC/C(=C(/c1ccc(/C=C/C(=O)O)cc1)c1cc(C)c2[nH]ncc2c1)c1ccccc1 [Compound 37, (E)-3-(4-((E)-1-(7-Methyl-1H-indazol-5-yl)-2-phenylbut-1-en-1-yl)phenyl)acrylic acid]	≥ 40%	≤ 100 nM	++ (++ = a single % value ≧ 40%)	≤ 100 nM
CC/C(=C(/c1ccc(/C=C/C(=O)O)cc1)c1ccc2[nH]ncc2c1)c1c(Cl)cccc1Cl [Compound 27, (E)-3-(4-((E)-2-(2,6-Dichlorophenyl)-1-(1H-indazol-5-yl)but-1-en-1-yl)phenyl)acrylic acid]	≥ 40%	≤ 100 nM	++ (++ = a single % value ≧ 40%)	≤ 100 nM
O=C(O)/C=C/c1ccc(/C(=C(/CC2CCCC2)c2ccccc2)c2ccc3[nH]ncc3c2)cc1 [Compound 60, (E)-3-(4-((E)-3-Cyclopentyl-1-(1H-indazol-5-yl)-2-phenylprop-1-en-1-yl)phenyl)acrylic acid]	≥ 40%	≤ 100 nM	++ (++ = a single % value ≧ 40%)	≤ 100 nM
CCOC(=O)/C=C/c1ccc(/C(=C(/CC)c2ccc(F)cc2)c2ccc3[nH]ncc3c2)cc1 [Compound 90, (E)-Ethyl 3-(4-((E)-2-(4-fluorophenyl)-1-(1H-indazol-5-yl)but-1-en-1-yl)phenyl)acrylate]	≥ 40%	≤ 100 nM	+ (+ = a single % value < 40%)	≤ 100 nM
O=C(O)/C=C/c1ccc(/C(=C(\c2ccccc2)C2CCCC2)c2ccc3[nH]ncc3c2)cc1 [Compound 53, (E)-3-(4-((E)-2-Cyclopentyl-1-(1H-indazol-5-yl)-2-phenylvinyl)phenyl)acrylic acid]	≥ 40%	≤ 100 nM	++ (++ = a single % value ≧ 40%)	≤ 100 nM
CC/C(=C(/c1ccc(/C=C/C(=O)O)cc1)c1ccc2[nH]ncc2c1)c1ccccc1S(C)(=O)=O [Compound 98, (E)-3-(4-((E)-1-(1H-Indazol-5-yl)-2-(2-(methylsulfonyl)phenyl)but-1-en-1-yl)phenyl)acrylic acid]	≥ 40%		++ (++ = a single % value ≧ 40%)	≤ 100 nM
CC/C(=C(/c1ccc(/C=C/C(=O)O)cc1)c1ccc2[nH]ncc2c1)c1ccc(Cl)cc1Cl [Compound 113, (E)-3-(4-((E)-2-(2,4-Dichlorophenyl)-1-(1H-indazol-5-yl)but-1-en-1-yl)phenyl)acrylic acid]	≥ 40%	≤ 100 nM	++ (++ = a single % value ≧ 40%)	≤ 100 nM
CCOC(=O)/C=C/c1ccc(/C(=C(/CC)c2ccc(OC)cc2)c2ccc3[nH]ncc3c2)cc1 [Compound 92, (E)-Ethyl 3-(4-((E)-1-(1H-Indazol-5-yl)-2-(4-methoxyphenyl)but-1-en-1-yl)phenyl)acrylate]			+ (+ = a single % value < 40%)	≤ 100 nM
[2H]C([2H])([2H])C([2H])([2H])/C(=C(/c1ccc(/C=C/C(=O)O)cc1)c1ccc2[nH]ncc2c1)c1ccc(F)cc1Cl [Compound 136, (E)-3-(4-((E)-2-(2-Chloro-4-fluorophenyl)-3,3,4,4,4-pentadeutero-1-(1H-indazol-5-yl)but-1-en-1-yl)phenyl)acrylic acid]			++ (++ = a single % value ≧ 40%)	≤ 100 nM
CC/C(=C(/c1ccc(/C=C/C(=O)O)cc1)c1ccc2[nH]ncc2c1)c1ccc(F)cc1Cl [Compound 111, (E)-3-(4-((E)-2-(2-Chloro-4-fluorophenyl)-1-(1H-indazol-5-yl)but-1-en-1-yl)phenyl)acrylic acid]			++ (++ = a single % value ≧ 40%)	≤ 100 nM
CCOC(=O)/C=C/c1ccc(/C(=C(/CC)c2ccccc2OC)c2ccc3[nH]ncc3c2)cc1 [Compound 91, (E)-ethyl 3-(4-((E)-1-(1H-indazol-5-yl)-2-(2-methoxyphenyl)but-1-en-1-yl)phenyl)acrylate]			+ (+ = a single % value < 40%)	≤ 100 nM
